Legend:
Lipoxygenase = test: LTB4 synthesis and inhibition test (lipoxygenase inhibition in vitro) in polymorphonuclear leucocytes; format: cell-based; conditions: Homo sapiens, PMNL, 10^-4 Mol/l, Ca-ionophore A 23187, arachidonic acid, read-out: Lipoxygenase inhib. in vitro, % inhibition of the LTB4 synthesis at 10^-4 Mol/l
Protocol: 2. In order to investigate the lipoxygenase-inhibiting properties, the inhibiting effect of the substances on the biosynthesis of leucotriene B4 (=LTB4) from arachidonic acid by activated inflamed cells was determined in vitro. Leucotriene B4, a dihydroxy fatty acid which plays an important role not only in the inflammation but also in allergic reactions was oxidatively formed, starting from arachidonic acid, by oxidation through the action of the enzyme lipoxygenase.
LTB4 Synthesis and Inhibition Test.
The combined extracts were evaporated under vacuum to dryness and the residue was taken up in 0.5 ml 30% aqueous methanol and was analyzed with the aid of high pressure liquid chromatography with phase reversal (=reversed phase-HPLC). The stationary phase (=separating medium) consisted of silica gel containing octadecyl groups chemically bound thereto (=RSIL C18 HP; produced by Autech, Darfield, Ill.). The solvent mixture is methanol:water:acetic acid (67:33:0.1; v/v/v), which had been adjusted to a pH value of 6.2 with NH3 /H2 O. The flow velocity was 1 ml/min. […] The LTB4 signals were compared with those of the control (cell incubation with solvent) and reported as percent inhibition of LTB4 synthesis compared with the controls.

[1] = system: oxygen radical-forming activity of peritoneal exudate cells (PEC) of mice; test: Spontaneous CL and induced CL chemiluminescence test: inhibition of oxygen radical liberation from peritoneal exudate cells (30 min preincubation); format: cell-based; parameters: concentration or dose not given beside the values; conditions: for Inhibition in vitro of the oxygen radical liberation, Chemiluminescence Test % inhibition, Ind. CL: induced CL, after ZyC3b activation; for Inhibition in vitro of the oxygen radical liberation, Chemiluminescence Test % inhibition, Spnt. CL: spontaneous CL, before ZyC3b
Protocol: 1. To determine the inhibiting effect on the oxygen radical-forming activity of inflamed cells, the in vitro inhibition of the release of oxygen radicals from activated peritoneal exudate cells (=PEC) of mice was determined in the chemiluminescence (CL) test according to the method of Mueller-Peddinghaus (Int. J. Immunopharmac. 6, 455-466 (1984)). […] The intensity of the chemiluminescence is a measurement of the oxygen radical content in the suspension and thus the degree of activity of the inflamed cells. In this, three functionally different parameters are detected, the spontaneous CL, the induced CL and the peak CL. The spontaneous CL and the induced CL on the one hand and the peak CL on the other hand differ from each other because in the first two parameters the test substances are in contact with the cells for a 30 minute preincubation period before the inflammation irritant is added, whereas with the peak CL the cells are first stimulated, and the test substance is added at the peak of their activity. The measurement of the spontaneous CL thus detects the influence of the test substance on the relative rest activity of inflamed cells, the induced CL represents the effect of the test substances on the activatability of the cells and the inhibition of the peak CL indicates the effect of the test substances on the maximum activity of the inflamed cells. 1.1 Production of PEC suspension used in the test. In order to induce the PEC formation, female mice of 20-25 g body weight were each injected i.p. with 2 ml of a 3% solution of thioglycollate in sterile isotonic sodium chloride solution. Twenty four hours after the thioglycollate injection the cells, which predominantly consisted of polymorphonuclear leucocytes, were recovered by washing out of the abdominal cavity and washed twice. As cell culture medium there was added a commercially available solution under the designation RPMI 1640 (pH 7.2) (produced by Flow Laboratories, […], Germany), which contains 10% fetal calf serum (FCS, produced by Seromed GmbH, Munich, Germany) 18 μmol/l sodium bicarbonate and 2 μmol/l L-glutamine. The cell pellets of four animals each time were resuspended in cell culture medium, collected together and the suspension was made up to 2×10^6 cells per ml with cell culture medium. The cell suspensions were kept under ice cooling until their use the same day. 1.2 Production of the complement opsonized zymosan (=ZyC3 b) suspension used for activation. 200 mg zymosan (glycoprotein mixture isolated from the cell walls of brewer's yeast, Sacchomyces […], produced by Sigma Chemical Co., Munich, Germany) were suspended in 10 ml phosphate buffer solution according to Dulbecco (produced by Flow Laboratories, […], Germany), well stirred and heated for thirty minutes in a water bath to 100° C. After cooling, it was centrifuged for five minutes at 4° C. and at 600 ×g and the supernatant was discarded. The sediment was resuspended in 50 ml human serum and incubated for thirty minutes at 37° C. in a shaking water bath. Then it was centrifuged for five minutes at 600 ×g and 420 C., the supernatant decanted and the sediment washed with phosphate buffer solution. The working suspension of 8×10^-3 g ZyC3 b/ml was produced from the sediment by dilution with phosphate buffer solution (Mueller-Peddinghaus et al., Zbl. Vet. Med. B. 30, 559-575). 1.3 Chemiluminescence (CL) measurement (Peak-CL). […] At the end of this preincubation phase, 100 μl lucigenin were added, and in the course of the subsequent sixteen minute incubation phase the spontaneous CL parameter was determined with two measuring points. Then 100 μl ZyC3 b+100 μl phosphate buffer were added, and during the course of the subsequent twenty-four minute cell activation the induced CL parameter was measured with three measuring points. All measurements were determined twice. The parameters spontaneous CL and induced CL were determined on the same day with two separate cell pools.

[2] = system: oxygen radical-forming activity of activated peritoneal exudate cells (PEC) of mice; test: Peak chemiluminescence (CL) test: inhibition of oxygen radical liberation from activated peritoneal exudate cells; format: cell-based; conditions: Mus musculus, 10^-4 Mol substance/l, added at peak of cell activity, read-out: Inhibition in vitro of the oxygen radical liberation, Chemiluminescence Test % inhibition, Pk. CL
Protocol: 1. To determine the inhibiting effect on the oxygen radical-forming activity of inflamed cells, the in vitro inhibition of the release of oxygen radicals from activated peritoneal exudate cells (=PEC) of mice was determined in the chemiluminescence (CL) test according to the method of Mueller-Peddinghaus (Int. J. Immunopharmac. 6, 455-466 (1984)). […] The intensity of the chemiluminescence is a measurement of the oxygen radical content in the suspension and thus the degree of activity of the inflamed cells. In this, three functionally different parameters are detected, the spontaneous CL, the induced CL and the peak CL. The spontaneous CL and the induced CL on the one hand and the peak CL on the other hand differ from each other because in the first two parameters the test substances are in contact with the cells for a 30 minute preincubation period before the inflammation irritant is added, whereas with the peak CL the cells are first stimulated, and the test substance is added at the peak of their activity. The measurement of the spontaneous CL thus detects the influence of the test substance on the relative rest activity of inflamed cells, the induced CL represents the effect of the test substances on the activatability of the cells and the inhibition of the peak CL indicates the effect of the test substances on the maximum activity of the inflamed cells. 1.1 Production of PEC suspension used in the test. In order to induce the PEC formation, female mice of 20-25 g body weight were each injected i.p. with 2 ml of a 3% solution of thioglycollate in sterile isotonic sodium chloride solution. Twenty four hours after the thioglycollate injection the cells, which predominantly consisted of polymorphonuclear leucocytes, were recovered by washing out of the abdominal cavity and washed twice. As cell culture medium there was added a commercially available solution under the designation RPMI 1640 (pH 7.2) (produced by Flow Laboratories, […], Germany), which contains 10% fetal calf serum (FCS, produced by Seromed GmbH, Munich, Germany) 18 μmol/l sodium bicarbonate and 2 μmol/l L-glutamine. The cell pellets of four animals each time were resuspended in cell culture medium, collected together and the suspension was made up to 2×10^6 cells per ml with cell culture medium. The cell suspensions were kept under ice cooling until their use the same day. 1.2 Production of the complement opsonized zymosan (=ZyC3 b) suspension used for activation. 200 mg zymosan (glycoprotein mixture isolated from the cell walls of brewer's yeast, Sacchomyces […], produced by Sigma Chemical Co., Munich, Germany) were suspended in 10 ml phosphate buffer solution according to Dulbecco (produced by Flow Laboratories, […], Germany), well stirred and heated for thirty minutes in a water bath to 100° C. After cooling, it was centrifuged for five minutes at 4° C. and at 600 ×g and the supernatant was discarded. The sediment was resuspended in 50 ml human serum and incubated for thirty minutes at 37° C. in a shaking water bath. Then it was centrifuged for five minutes at 600 ×g and 420 C., the supernatant decanted and the sediment washed with phosphate buffer solution. The working suspension of 8×10^-3 g ZyC3 b/ml was produced from the sediment by dilution with phosphate buffer solution (Mueller-Peddinghaus et al., Zbl. Vet. Med. B. 30, 559-575). 1.3 Chemiluminescence (CL) measurement (Peak-CL). The PEC suspension was divided into samples of 100 μl each, placed in test tubes, and these were incubated for ten minutes at a temperature of 3720 C. in a measurement device (Chemiluminescence analyzer, Laboratorium Prof. Berthold, Wildbad, Germany). Then in order to amplify the chemiluminescence, 100 μl lucigenin solution was added (final concentration 1.54×10^-4 mol/l) and incubated for 16 more minutes. The cells were then activated by the addition of 100 μl of the ZyC3 b suspension produced as described in section 1.2 plus 100 μl phosphate buffer solution. […]

[3] = system: carrageenin foot edema in male Wistar rats; test: Inhibition of carrageenin foot edema in rats (Winter et al.); format: in vivo; conditions: Rattus norvegicus, ip; 215 μmol/kg i.p.; 2 h after irritant
Protocol: A similar volume of isotonic sodium chloride solution was injected in the left hind foot. The volume of the each rat's foot was measured plethysmometrically both before and two hours after administration of the irritant, and the swelling of the foot volume after the carrageenin application was compared to the foot which was treated only with sodium chloride solution The inhibition of edema formation by the test substances in the treated animals was compared in percentage terms with the animals of the untreated control group.

Question: `O=C(c1c(-c2ccccc2Cl)oc2ccccc2c1=O)N1CCN(c2ccccn2)CC1` [Example 35] was tested. Which inhibition at 100 µM (Lipoxygenase) did it give?
Answer: 100%

Question: `CC(=O)Oc1cc(-c2oc3ccccc3c(=O)c2C(=O)N2CCN(Cc3ccccc3)CC2)cc(OC(C)=O)c1OC(C)=O` [Example 42b] was tested. Which “Inhibition in vitro of the oxygen radical liberation, Chemiluminescence Test % inhibition, Ind. CL” value [1] did it give?
Answer: 100%

Question: And the “Inhibition in vitro of the oxygen radical liberation, Chemiluminescence Test % inhibition, Spnt. CL” value [1]?
Answer: 99%

Question: What about the inhibition at 100 µM (stock) [2] of the same compound?
Answer: 99%

Question: What about the inhibition at 100 µM (Lipoxygenase) of the same compound?
Answer: 100%

Question: Which results are given for `O=C(c1c(-c2ccc(O)c(O)c2)oc2ccccc2c1=O)N1CCN(c2ccccn2)CC1` [Example 29]?
Answer: Inhibition in vitro of the oxygen radical liberation, Chemiluminescence Test % inhibition, Ind. CL [1]: 74%; Inhibition in vitro of the oxygen radical liberation, Chemiluminescence Test % inhibition, Spnt. CL [1]: 65%; inhibition at 100 µM (stock) [2]: 75%; inhibition at 100 µM (Lipoxygenase): 97%

Question: Which inhibition in vivo at 215 µmol/kg [3] does the source give for `COc1cc(-c2oc3ccccc3c(=O)c2C(=O)NCCCCN2CCN(c3ccccn3)CC2)cc(OC)c1OC` [Example 6b, 3',4',5'-Trimethoxy-3-{4-[4-(2-pyridyl)-piperazin-1-yl]-butylaminocarbonyl}flavone] here?
Answer: 75%

Question: With `O=C(NCCCC[N+]1([O-])CC[N+]([O-])(c2cccc[n+]2[O-])CC1)c1c(-c2ccccc2)oc2ccccc2c1=O` (centres unmarked) [Example 26] as the compound, how does the “Inhibition in vitro of the oxygen radical liberation, Chemiluminescence Test % inhibition, Ind. CL” value [1] read?
Answer: 3%

Question: And the “Inhibition in vitro of the oxygen radical liberation, Chemiluminescence Test % inhibition, Spnt. CL” value [1]?
Answer: 13%

Question: What about the inhibition at 100 µM (stock) [2] of the same compound?
Answer: 10%

Question: And the inhibition at 100 µM (Lipoxygenase)?
Answer: 43%

Source: patent publication US4886806A, “Flavone-3-carboxylic acids compounds and pharmaceutical compositions containing them” (Kali-Chemie Pharma GmbH, priority 1987, dated 1989)
